Measurements: patent US20240390352A1, “PHARMACEUTICAL COMPOSITION FOR PREVENTING OR TREATING CANCER COMPRISING CARNITINE ACYLCARNITINE CARRIER INHIBITOR AND ANTITUMOR AGENT” (NEW CANCER CURE - BIO CO.,LTD., priority 2021, published 2024)
Several values for one entry are separate records, joined by “and”; a condition that tells them apart may be missing. Equal entries are not always repeated. Entries after “also recorded” stand apart in the source; their conditions may differ.

Key:
HCT-116 cells = test: SRB assay cancer cell growth rate, HCT-116; format: cell-based; conditions: relative to control (100%), 48 hours, KN510 200 μM, irinotecan 2.5 μM, 5-FU 5 μM, gemcitabine 2.5 μM, paclitaxel 10 nM, cisplatin 1 μM, alone or KN510 + anticancer drug
CAKI-1 cells = test: SRB assay cancer cell growth rate, CAKI-1; format: cell-based; conditions: relative to control (100%), 48 hours, KN510 200 μM, irinotecan 2.5 μM, 5-FU 5 μM, gemcitabine 2.5 μM, paclitaxel 10 nM, cisplatin 1 μM, alone or KN510 + anticancer drug
ACHN cells = test: SRB assay cancer cell growth rate, ACHN; format: cell-based; conditions: relative to control (100%), 48 hours, KN510 200 μM, irinotecan 2.5 μM, 5-FU 5 μM, gemcitabine 2.5 μM, paclitaxel 10 nM, cisplatin 1 μM, alone or KN510 + anticancer drug
UACC62 cells = test: SRB assay cancer cell growth rate, UACC62; format: cell-based; conditions: relative to control (100%), 48 hours, KN510 200 μM, irinotecan 2.5 μM, 5-FU 5 μM, gemcitabine 2.5 μM, paclitaxel 10 nM, cisplatin 1 μM, alone or KN510 + anticancer drug
UACC257 cells = test: SRB assay cancer cell growth rate, UACC257; format: cell-based; conditions: relative to control (100%), 48 hours, KN510 200 μM, irinotecan 2.5 μM, 5-FU 5 μM, gemcitabine 2.5 μM, paclitaxel 10 nM, cisplatin 1 μM, alone or KN510 + anticancer drug
OVCAR-8 cells = test: SRB assay cancer cell growth rate, OVCAR-8; format: cell-based; conditions: relative to control (100%), 48 hours, KN510 200 μM, irinotecan 2.5 μM, 5-FU 5 μM, gemcitabine 2.5 μM, paclitaxel 10 nM, cisplatin 1 μM, alone or KN510 + anticancer drug
A549 cells = test: SRB assay cancer cell growth rate, A549; format: cell-based; conditions: relative to control (100%), 48 hours, KN510 200 μM, irinotecan 2.5 μM, 5-FU 5 μM, gemcitabine 2.5 μM, paclitaxel 10 nM, cisplatin 1 μM, alone or KN510 + anticancer drug
PC-3 cells = test: SRB assay cancer cell growth rate, PC-3; format: cell-based; conditions: relative to control (100%), 48 hours, KN510 200 μM, irinotecan 2.5 μM, 5-FU 5 μM, gemcitabine 2.5 μM, paclitaxel 10 nM, cisplatin 1 μM, alone or KN510 + anticancer drug
SR cells = test: SRB assay cancer cell growth rate, SR; format: cell-based; conditions: relative to control (100%), 48 hours, KN510 200 μM, irinotecan 2.5 μM, 5-FU 5 μM, gemcitabine 2.5 μM, paclitaxel 10 nM, cisplatin 1 μM, alone or KN510 + anticancer drug
K562 cells = test: SRB assay cancer cell growth rate, K562; format: cell-based; conditions: relative to control (100%), 48 hours, KN510 200 μM, irinotecan 2.5 μM, 5-FU 5 μM, gemcitabine 2.5 μM, paclitaxel 10 nM, cisplatin 1 μM, alone or KN510 + anticancer drug
[1] = system: colon cancer cell lines HCT-116 cells and COLO-205 cells; test: Synergistic effect of omeprazole and anticancer drug, colon cancer cell lines; format: cell-based; conditions: anticancer drug combined with omeprazole (KN510) versus each treatment alone
[2] = system: renal cell carcinoma cell lines CAKI-1 and ACHN cells; test: Synergistic effect of omeprazole and anticancer drug, renal cancer cell lines; format: cell-based; conditions: anticancer drug combined with omeprazole (KN510) versus each treatment alone
[3] = system: liver cancer cell lines SK-HEP-1 cells and Huh-7 cells; test: Synergistic effect of omeprazole and anticancer drug, liver cancer cell lines; format: cell-based; conditions: anticancer drug combined with omeprazole (KN510) versus each treatment alone
[4] = system: glioblastoma (GBM) cell lines, U-87 MG cells and T87G cells; test: Synergistic effect of omeprazole and anticancer drug, glioblastoma cell lines; format: cell-based; conditions: anticancer drug combined with omeprazole (KN510) versus each treatment alone
[5] = system: melanoma cell lines UACC62 cells and UACC257 cells; test: Synergistic effect of omeprazole and anticancer drug, melanoma cell lines; format: cell-based; conditions: anticancer drug combined with omeprazole (KN510) versus each treatment alone
[6] = system: pancreatic ductal adenocarcinoma (PDAC) cell lines, MIA PaCa-2 cells and PANC-1 cells; test: Synergistic effect of omeprazole and anticancer drug, pancreatic cancer cell lines; format: cell-based; conditions: anticancer drug combined with omeprazole (KN510) versus each treatment alone
[7] = system: MKN-28 cells and AGS cells, stomach cancer cells; test: Synergistic effect of omeprazole and anticancer drug, stomach cancer cells; format: cell-based; conditions: anticancer drug combined with omeprazole (KN510) versus each treatment alone
[8] = system: ovarian cancer cells, OVCAR-8 cells and SK-OV-3 cells; test: Synergistic effect of omeprazole and anticancer drug, ovarian cancer cells; format: cell-based; conditions: anticancer drug combined with omeprazole (KN510) versus each treatment alone
[9] = system: A549 and H23 lung cancer cells; test: Synergistic effect of omeprazole and anticancer drug, lung cancer cells; format: cell-based; conditions: anticancer drug combined with omeprazole (KN510) versus each treatment alone
[10] = system: breast cancer cells, MDA-MB-231 cells and MCF-7 cells; test: Synergistic effect of omeprazole and anticancer drug, breast cancer cells; format: cell-based; conditions: anticancer drug combined with omeprazole (KN510) versus each treatment alone
[11] = system: prostate cancer cells, PC-3 cells and DU-145 cells; test: Synergistic effect of omeprazole and anticancer drug, prostate cancer cells; format: cell-based; conditions: anticancer drug combined with omeprazole (KN510) versus each treatment alone
[12] = system: leukemia cells, SR cells and K562 cells; test: Synergistic effect of omeprazole and anticancer drug, leukemia cells; format: cell-based; conditions: anticancer drug combined with omeprazole (KN510) versus each treatment alone
[13] = system: MIA PaCa-2 cells xenograft tumor; test: Pancreatic cancer xenograft tumor model; format: in vivo, Balb/c nude mice; conditions: irinotecan 20 mg/kg IP 1 days/week, alone or combined
Protocol: To determine the anticancer synergistic effects of omeprazole (KN510) and irinotecan co-administration in vivo, a pancreatic cancer xenograft tumor model was constructed and administered with the drugs.
Specifically, 6-8 week old Balb/c nude mice (Orient, Korea) were inoculated subcutaneously with MIA PaCa-2 cells (1×10^7) in 100 μl PBS using 1 ml syringe, and when the tumor size reached 100 mm^3, the mice were randomly divided into 4 groups with 4 mice per group, and then treated with drugs as shown in Table 14 below.
We also performed two separate experiments with omeprazole (KN510), one at a concentration of 50 mg/kg and the other at 100 mg/kg. • 1) Control (solvent treatment) • 2) Omeprazole (KN510) alone (50 mg/kg or 100 mg/kg, P.O. injection), • 3) Irinotecan alone (20 mg/kg, I.P injection), • 4) Omeprazole (KN510) (50 mg/kg or 100 mg/kg)+irinotecan (20 mg/kg/) as a combination treatment group
Primary tumor size was measured weekly using calipers. Tumor volumes were calculated using Equation 1 below, and data are expressed as mean (mean)+standard deviation (SD) values of mouse tumor volume per group.

[14] = experiment with KN510 50 mg/kg PO 5 days/week
[15] = experiment with KN510 100 mg/kg PO 5 days/week

| Structure (SMILES) | HCT-116 growth rate average (%) (HCT-116 cells) | CAKI-1 growth rate average (%) (CAKI-1 cells) | ACHN growth rate average (%) (ACHN cells) | UACC62 growth rate average (%) (UACC62 cells) | UACC257 growth rate average (%) (UACC257 cells) | OVCAR-8 growth rate average (%) (OVCAR-8 cells) | A549 growth rate average (%) (A549 cells) | PC-3 growth rate average (%) (PC-3 cells) | SR growth rate average (%) (SR cells) | K562 growth rate average (%) (K562 cells) | synergistic effect of omeprazole and an anticancer drug in combination, colon cancer [1] | synergistic effect of omeprazole and an anticancer drug in combination, renal cell carcinoma [2] | synergistic effect of omeprazole and an anticancer drug in combination, liver cancer [3] | synergistic effect of omeprazole and an anticancer drug in combination, glioblastoma (GBM) [4] | synergistic effect of omeprazole and an anticancer drug in combination, melanoma [5] | synergistic effect of omeprazole and an anticancer drug in combination, pancreatic cancer (PDAC) [6] | synergistic effect of omeprazole and an anticancer drug in combination, stomach cancer [7] | synergistic effect of omeprazole and an anticancer drug in combination, ovarian cancer [8] | synergistic effect of omeprazole and an anticancer drug in combination, lung cancer [9] | synergistic effect of omeprazole and an anticancer drug in combination, breast cancer [10] | other results |
| --- | --- | --- | --- | --- | --- | --- | --- | --- | --- | --- | --- | --- | --- | --- | --- | --- | --- | --- | --- | --- | --- |
| O=c1[nH]cc(F)c(=O)[nH]1 [5-FU, fluorouracil] | 41.59 | 47.91% | 48.97 | 52.14 | 62.17% | 27.12% | 27.36 | 55.19 | 96.15 | 99.83 | significantly inhibited; also recorded: Positive effect | significantly inhibited; also recorded: Positive effect | significantly inhibited; also recorded: Positive effect | Negative effect | significantly inhibited; also recorded: Positive effect | Negative effect | Negative effect | Negative effect | significantly inhibited; also recorded: Positive effect | Negative effect | synergistic effect of omeprazole and an anticancer drug in combination, prostate cancer [11]: Negative effect; synergistic effect of omeprazole and an anticancer drug in combination, leukemia [12]: significantly inhibited; also recorded: Positive effect |
| N.N.[Cl][Pt][Cl] [Cisplatin] | 100.00 | 88.17% | 78.57 | 62.76 | 76.16% | 51.47% | 99.46 | 82.60 | 93.52 | 102.62 | Negative effect | Negative effect | Negative effect | Negative effect | Negative effect | Negative effect | Negative effect | Positive effect | Negative effect | Negative effect | synergistic effect of omeprazole and an anticancer drug in combination, ovarian cancer ([8]; listed as cisplatin): significantly inhibited; synergistic effect of omeprazole and an anticancer drug in combination, prostate cancer [11]: Negative effect; synergistic effect of omeprazole and an anticancer drug in combination, leukemia [12]: Positive effect; synergistic effect of omeprazole and an anticancer drug in combination, leukemia ([12]; listed as cisplatin): significantly inhibited |
| Nc1ccn([C@@H]2O[C@H](CO)[C@@H](O)C2(F)F)c(=O)n1 [Gemcitabine] | 16.32 | 2.30% | −2.82 | 53.65 | 30.97% | −14.25% | −16.60 | 32.17 | 53.15 | 53.51 | Negative effect | Negative effect | Negative effect | Negative effect | Negative effect | Negative effect | Negative effect | Negative effect | Negative effect | Negative effect | synergistic effect of omeprazole and an anticancer drug in combination, prostate cancer [11]: Negative effect; synergistic effect of omeprazole and an anticancer drug in combination, leukemia [12]: Negative effect |
| COc1ccc2[nH]c([S+]([O-])Cc3ncc(C)c(OC)c3C)nc2c1 (stereo not drawn) [KN510, omeprazole] | 35.30 | 41.69% and 35.30% |  |  | 10.97% and 3.31% and 3.10% and 4.33% | 30.64% and 38.65% | 10.47 | 12.70 | 42.75 | 34.61 |  |  |  |  |  |  |  |  |  |  | Tumor volume, 2 week average [13, 14]: 143.01 mm^3; Tumor volume, 2 week average [13, 15]: 93.96 mm^3; Tumor volume, 3 week average [13, 14]: 675.69 mm^3; Tumor volume, 3 week average [13, 15]: 229.95 mm^3; Tumor volume, 4 week average [13, 14]: 965.63 mm^3; Tumor volume, 4 week average [13, 15]: 469.90 mm^3; Tumor volume, 5 week average [13, 14]: 1296.93 mm^3; Tumor volume, 5 week average [13, 15]: 843.25 mm^3 |
